Results taken from patent publication US9302999B2, “Substituted triazoles as herbicides” (E. I. DU PONT DE NEMOURS AND COMPANY, priority 2012, dated 2016).

Experiments:
Format in all cases: in vivo
[1] = tested on: surinam grass (Brachiaria decumbens); test: Test C pre-/postemergence: surinam grass
In short: (§1)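 Preemergence on seeds in loam/sand, postemergence on 2–18 cm (1–4-leaf) plants in peat-based medium; compounds in non-phytotoxic solvent with surfactant. After 13–15 days in greenhouse, visual rating versus controls, 0 (no effect) to 100 (complete control).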

[2] = tested on: barley (winter barley, Hordeum vulgare); test: Test C postemergence: barley
In short: (§2)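 Visual 0–100 injury score vs untreated controls (0 none, 100 complete control), taken 13–15 d after treatment. Postemergence spray on potted plants, 2–18 cm, 1–4 leaves; greenhouse.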

[3] = tested on: goosegrass (Eleusine indica); test: Test C pre-/postemergence: goosegrass
In short: as §1

[4] = tested on: cocklebur (common cocklebur, Xanthium strumarium); test: Test C pre-/postemergence: cocklebur
In short: as §1

[5] = tested on: foxtail, green (green foxtail, Setaria viridis); test: Test C pre-/postemergence: foxtail, green
In short: as §1

[6] = tested on: woolly cupgrass (Eriochloa villosa); test: Test C pre-/postemergence: woolly cupgrass
In short: as §1

[7] = tested on: bermudagrass (Cynodon dactylon); test: Test C pre-/postemergence: bermudagrass
In short: as §1

[8] = tested on: common (oilseed) sunflower (Helianthus annuus); test: Test C pre-/postemergence: sunflower; details: Preemergence
In short: as §1

[9] = tested on: bromegrass, downy (downy bromegrass, Bromus tectorum); test: Test C pre-/postemergence: bromegrass, downy
In short: as §1

[10] = tested on: windgrass (Apera spica-venti); test: Test C postemergence: windgrass
In short: as §2

[11] = Postemergence, 31 g ai/ha, scale 0 to 100 (0 no effect, 100 complete control)
[12] = Postemergence, 62 g ai/ha, scale 0 to 100 (0 no effect, 100 complete control)
[13] = Postemergence, 125 g ai/ha, scale 0 to 100, 0 no effect, 100 complete control
[14] = Postemergence, 250 g ai/ha, scale 0 to 100
[15] = Preemergence, 31 g ai/ha, scale of 0 to 100, 0 is no effect, 100 is complete control
[16] = Preemergence, 62 g ai/ha, scale of 0 to 100, 0 is no effect, 100 is complete control
[17] = Preemergence, 125 g ai/ha, scale 0 to 100, 0 no effect, 100 complete control
[18] = Preemergence, 250 g ai/ha, scale 0 to 100, 0 no effect, 100 complete control
[19] = 31 g ai/ha, scale 0 to 100 (0 no effect, 100 complete control)
[20] = 62 g ai/ha, scale 0 to 100 (0 no effect, 100 complete control)
[21] = 125 g ai/ha, scale 0 to 100, 0 no effect, 100 complete control
[22] = Preemergence, 62 g ai/ha, scale 0 to 100, 0 no effect, 100 complete control
[23] = 62 g ai/ha, scale of 0 to 100, 0 is no effect, 100 is complete control
[24] = 250 g ai/ha, scale 0 to 100, 0 no effect, 100 complete control

In the case of `Cc1nn(-c2ccc(C(F)(F)F)cn2)nc1Cc1cccc(C(F)(F)F)c1` [Compound 106], the “Plant response rating, Surinam Grass” value [1, 11] is reported as 20, the “Plant response rating, Surinam Grass” value [1, 12] is reported as 25 and the “Plant response rating, Surinam Grass” value [1, 13] is reported as 35. For the same molecule, the “Plant response rating, Surinam Grass” value [1, 14] was 40, the “Plant response rating, Surinam Grass” value [1, 15] was 5 and the “Plant response rating, Surinam Grass” value [1, 16] was 20. The “Plant response rating, Surinam Grass” value [1, 17] was 80, the “Plant response rating, Surinam Grass” value [1, 18] was 90 and the “Plant response rating, Barley” value [2, 19] was 15. The “Plant response rating, Barley” value [2, 20] was 25, the “Plant response rating, Barley” value [2, 21] was 35 and the “Plant response rating, Barley” value ([2]; 250 g ai/ha, scale 0 to 100) was 40. The “Plant response rating, Goosegrass” value [3, 11] was 10, the “Plant response rating, Goosegrass” value [3, 12] was 35 and the “Plant response rating, Goosegrass” value [3, 13] was 45. The “Plant response rating, Goosegrass” value [3, 14] was 55, the “Plant response rating, Goosegrass” value [3, 15] was 80 and the “Plant response rating, Goosegrass” value [3, 16] was 98. The “Plant response rating, Goosegrass” value [3, 17] was 98, the “Plant response rating, Goosegrass” value [3, 18] was 100 and the “Plant response rating, Cocklebur” value [4, 11] was 35. For the same molecule, the “Plant response rating, Cocklebur” value [4, 12] was 35, the “Plant response rating, Cocklebur” value [4, 13] was 40 and the “Plant response rating, Cocklebur” value [4, 14] was 55. For the same molecule, the “Plant response rating, Foxtail, Green” value [5, 11] was 50, the “Plant response rating, Foxtail, Green” value [5, 12] was 50 and the “Plant response rating, Foxtail, Green” value [5, 13] was 70. For the same molecule, the “Plant response rating, Foxtail, Green” value [5, 14] was 85, the “Plant response rating, Foxtail, Green” value [5, 15] was 90 and the “Plant response rating, Foxtail, Green” value [5, 16] was 95. For the same molecule, the “Plant response rating, Foxtail, Green” value [5, 17] was 95, the “Plant response rating, Foxtail, Green” value [5, 18] was 95 and the “Plant response rating, Cupgrass, Woolly” value [6, 11] was 5. The “Plant response rating, Cupgrass, Woolly” value [6, 12] was 45, the “Plant response rating, Cupgrass, Woolly” value [6, 13] was 45 and the “Plant response rating, Cupgrass, Woolly” value [6, 14] was 50. For the same molecule, the “Plant response rating, Cupgrass, Woolly” value [6, 15] was 5, the “Plant response rating, Cupgrass, Woolly” value [6, 16] was 60 and the “Plant response rating, Cupgrass, Woolly” value [6, 17] was 80. For the same molecule, the “Plant response rating, Cupgrass, Woolly” value [6, 18] was 90, the “Plant response rating, Bermudagrass” value [7, 11] was 40 and the “Plant response rating, Bermudagrass” value [7, 12] was 40. For the same molecule, the “Plant response rating, Bermudagrass” value [7, 13] was 55, the “Plant response rating, Bermudagrass” value [7, 14] was 80 and the “Plant response rating, Bermudagrass” value [7, 15] was 100. For the same molecule, the “Plant response rating, Bermudagrass” value [7, 22] was 100, the “Plant response rating, Bermudagrass” value [7, 17] was 100 and the “Plant response rating, Bermudagrass” value [7, 18] was 100. For the same molecule, the “Plant response rating, Sunflower” value [8, 23] was 0, the “Plant response rating, Sunflower” value [8, 21] was 0 and the “Plant response rating, Sunflower” value [8, 24] was 0. For the same molecule, the “Plant response rating, Bromegrass, Downy” value [9, 11] was 30, the “Plant response rating, Bromegrass, Downy” value [9, 12] was 35 and the “Plant response rating, Bromegrass, Downy” value [9, 13] was 40. For the same molecule, the “Plant response rating, Bromegrass, Downy” value [9, 14] was 40, the “Plant response rating, Bromegrass, Downy” value [9, 15] was 0 and the “Plant response rating, Bromegrass, Downy” value [9, 22] was 5. For the same molecule, the “Plant response rating, Bromegrass, Downy” value [9, 17] was 40, the “Plant response rating, Bromegrass, Downy” value [9, 18] was 60 and the “Plant response rating, Windgrass” value [10, 19] was 50. The “Plant response rating, Windgrass” value [10, 20] was 65, the “Plant response rating, Windgrass” value [10, 21] was 80 and the “Plant response rating, Windgrass” value ([10]; 250 g ai/ha, scale 0 to 100) was 85.
`Cc1nn(-c2ccc(C(F)(F)F)cc2)nc1Oc1ccnc(C(F)(F)F)c1` [Compound 120] was tested, and the “Plant response rating, Surinam Grass” value [1, 11] was 5, the “Plant response rating, Surinam Grass” value [1, 12] was 5 and the “Plant response rating, Surinam Grass” value [1, 13] was 20. The “Plant response rating, Surinam Grass” value [1, 14] was 20, the “Plant response rating, Surinam Grass” value [1, 15] was 65 and the “Plant response rating, Surinam Grass” value [1, 16] was 95. The “Plant response rating, Surinam Grass” value [1, 17] was 98, the “Plant response rating, Surinam Grass” value [1, 18] was 100 and the “Plant response rating, Barley” value [2, 19] was 20. The “Plant response rating, Barley” value [2, 20] was 30, the “Plant response rating, Barley” value [2, 21] was 40 and the “Plant response rating, Barley” value ([2]; 250 g ai/ha, scale 0 to 100) was 55. For the same molecule, the “Plant response rating, Goosegrass” value [3, 11] was 5, the “Plant response rating, Goosegrass” value [3, 12] was 5 and the “Plant response rating, Goosegrass” value [3, 13] was 10. The “Plant response rating, Goosegrass” value [3, 14] was 45, the “Plant response rating, Goosegrass” value [3, 15] was 98 and the “Plant response rating, Goosegrass” value [3, 16] was 98. The “Plant response rating, Goosegrass” value [3, 17] was 98, the “Plant response rating, Goosegrass” value [3, 18] was 98 and the “Plant response rating, Cocklebur” value [4, 11] was 45. The “Plant response rating, Cocklebur” value [4, 12] was 50, the “Plant response rating, Cocklebur” value [4, 13] was 65 and the “Plant response rating, Cocklebur” value [4, 14] was 65. The “Plant response rating, Cocklebur” value [4, 15] was 0, the “Plant response rating, Cocklebur” value [4, 22] was 0 and the “Plant response rating, Cocklebur” value [4, 18] was 5. The “Plant response rating, Foxtail, Green” value [5, 11] was 15, the “Plant response rating, Foxtail, Green” value [5, 12] was 85 and the “Plant response rating, Foxtail, Green” value [5, 13] was 100. For the same molecule, the “Plant response rating, Foxtail, Green” value [5, 14] was 100, the “Plant response rating, Foxtail, Green” value [5, 15] was 90 and the “Plant response rating, Foxtail, Green” value [5, 16] was 90. The “Plant response rating, Foxtail, Green” value [5, 17] was 90, the “Plant response rating, Foxtail, Green” value [5, 18] was 90 and the “Plant response rating, Cupgrass, Woolly” value [6, 11] was 10. For the same molecule, the “Plant response rating, Cupgrass, Woolly” value [6, 12] was 10, the “Plant response rating, Cupgrass, Woolly” value [6, 13] was 40 and the “Plant response rating, Cupgrass, Woolly” value [6, 14] was 45. For the same molecule, the “Plant response rating, Cupgrass, Woolly” value [6, 15] was 90, the “Plant response rating, Cupgrass, Woolly” value [6, 16] was 95 and the “Plant response rating, Cupgrass, Woolly” value [6, 17] was 98. The “Plant response rating, Cupgrass, Woolly” value [6, 18] was 98, the “Plant response rating, Bermudagrass” value [7, 11] was 5 and the “Plant response rating, Bermudagrass” value [7, 12] was 5. For the same molecule, the “Plant response rating, Bermudagrass” value [7, 13] was 5, the “Plant response rating, Bermudagrass” value [7, 14] was 10 and the “Plant response rating, Bermudagrass” value [7, 15] was 98. The “Plant response rating, Bermudagrass” value [7, 22] was 98, the “Plant response rating, Bermudagrass” value [7, 17] was 98 and the “Plant response rating, Bermudagrass” value [7, 18] was 100. The “Plant response rating, Sunflower” value ([8]; 31 g ai/ha, scale of 0 to 100, 0 is no effect, 100 is complete control) was 0, the “Plant response rating, Sunflower” value [8, 23] was 0 and the “Plant response rating, Sunflower” value [8, 21] was 0. The “Plant response rating, Sunflower” value [8, 24] was 5, the “Plant response rating, Bromegrass, Downy” value [9, 11] was 15 and the “Plant response rating, Bromegrass, Downy” value [9, 12] was 15. The “Plant response rating, Bromegrass, Downy” value [9, 13] was 30, the “Plant response rating, Bromegrass, Downy” value [9, 15] was 45 and the “Plant response rating, Bromegrass, Downy” value [9, 22] was 85. For the same molecule, the “Plant response rating, Bromegrass, Downy” value [9, 17] was 90, the “Plant response rating, Bromegrass, Downy” value [9, 18] was 90 and the “Plant response rating, Windgrass” value [10, 19] was 50. For the same molecule, the “Plant response rating, Windgrass” value [10, 20] was 55 and the “Plant response rating, Windgrass” value [10, 21] was 90.
